PubChem BioAssay AID2060600 (Molecular Pharmacology Branch, DTP, NCI, 2025)
Several values for one entry are separate records, joined by “and”; a condition that tells them apart may be missing. Equal entries are not always repeated.

Tested on: 996289-038-R-J1-PDC complex spheroid viability
Test: Anticancer human tumor 996289-038-R-J1-PDC patient-derived colon adenocarcinoma cell line growth inhibition [CLK]
Details: for viability, T/C: stronger effect = lower value
Text: A high-throughput screen of multi-cell type tumor spheroids was designed to identify active combinations of […] and targeted small molecules. Complex spheroids include a stromal component modeled by human endothelial cells (HUVEC) and fibroblasts modeled by human mesenchymal stem cells (MSCs). The concentration ranges selected for each drug and investigational agent were based upon clinically achievable concentrations if the clinical Cmax of the agent was known.
Compounds. The drugs and investigational agents: cirtuvivint (SM08502; NSC835563), CC-671 (NSC850746), vemurafenib (NSC761431), tapotoclax (NSC804041), sotorasib (NSC818433), adagrasib (NSC831453), MRTX-1133 (NSC836407), BAY2416964 (NSC825713), copanlisib (NSC816437), inavolisib (NSC800729), abemaciclib (NSC768073), osimertinib (NSC779217), entinostat (NSC756642), eltanexor (KPT-8602, NSC794443), venetoclax (NSC766270), ceralasertib (NSC777638), bortezomib (NSC756655), olaparib (NSC753686), talazoparib (NSC767125), alisertib (NSC759677), peposertib (NSC802822), gemcitabine (NSC613327), 5-fluorouracil (NSC19893), SN-38 (NSC673596), oxaliplatin (NSC266046), paclitaxel (NSC125973), and doxorubicin (NSC123127), were obtained from the National Cancer Institute (NCI) Developmental Therapeutics Program Chemical Repository. The FDA-approved anticancer drug set is available from the Developmental Therapeutics Program at https://dtp.cancer.gov/organization/dscb/obtaining/available plates.htm. […] The stock solutions were prepared in dimethyl sulfoxide (DMSO, Sigma-Aldrich, St. Louis, MO, cat. D2650), except for the platinum complexes which were prepared in saline (Quality Biological, Gaithersburg, MD, cat. 114-055-101), at 800-fold the tested concentration and stored at -70 degrees C prior to their use. All drugs and investigational agents were tested over a range starting from a high concentration at or near the clinical Cmax and decreasing in half-log increments. If the clinical Cmax for an agent had not been determined, the highest concentration tested was 10 microM.
Cell Culture. All cells were maintained in an incubator at 37 degrees C and 5% CO2 with 95% humidity. The PDC lines were cultured according to standard operating procedures established by the NCI PDMR. Briefly, all PDCs were thawed and cultured in Matrigel-coated flasks prepared with a working solution of 1X Ham's F-12 nutrient mix, without supplementation (Invitrogen, Waltham, MA, cat. 11765054), 100 U/mL penicillin-streptomycin (Invitrogen, cat. 15140122), and 2.5% Matrigel (Corning Inc., Corning, NY, cat. 354248) for the first three passages. The 947758-054-R-J2-PDC line was cultured in 6B/Colon 1A media, which includes advanced DMEM/F-12 (Thermo Fisher Scientific, cat. 12634028), 10 mM HEPES (Thermo Fisher Scientific, cat. 15630080), 1X GlutaMAX supplement (Thermo Fisher Scientific, cat. 35050061), 0.1 mg/mL primocin (InvivoGen, cat. ant-pm-2), 10% defined fetal bovine serum, heat inactivated (HyClone Laboratories Inc., cat. SH30070.03HI), 1.25 mM N-Acetyl-L-cysteine (Sigma-Aldrich, cat. A9165), 10 mM nicotinamide (Sigma-Aldrich, cat. N0636), 1X B-27 supplement (Thermo Fisher Scientific, cat. 17504044), 1X N-2 supplement (Thermo Fisher Scientific, cat. 17502048), and 10 microM Y-27632 dihydrochloride (Tocris Bioscience, cat. 1254). The 876862-298-R-J1-PDC was cultured in 6E media, which includes all 6B/Colon 1A media components plus 50% L-WRN conditioned media (ATCC, cat. CRL-3276), 50 ng/mL recombinant human EGF recombinant protein (hEGF; Thermo Fisher Scientific, cat. PHG0311), 10 ng/mL recombinant human fibroblast growth factor 10 (hGFG-10; PeproTech, cat. 100-26), 1 ng/mL recombinant human fibroblast growth factor 2 (hFGF-2; PeproTech, cat. 100-18B), and 1 µM prostaglandin E2 (PGE2; Tocris, cat. 2296). The 227483-062-R1-J1-PDC line was cultured in Panc media, containing all 6E components except hFGF-2, with the addition of 500 nM SB-431542 (Selleckchem, cat. S1067) and 10 nM gastrin (Tocris, cat. 3006). […]
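Further: spheroids exposed to the agents for 7 days before readout.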

Row | SMILES | viability, T/C (compound 0.00316 µM) | viability, T/C (compound 0.01 µM) | viability, T/C (compound 0.0316 µM) | viability, T/C (compound 0.1 µM) | viability, T/C (compound 0.316 µM) | viability, T/C (compound 1 µM) | IC50 (curve of compound) | viability, T/C (compound 3.16 µM) | viability, T/C (compound 10 µM) | IC50 (compound alone, run of 08/14/2023) | IC50 (compound alone, run of 08/15/2023)
1 | CCc1c2c(nc3ccc(O)cc13)-c1cc3c(c(=O)n1C2)COC(=O)[C@]3(O)CC | 98.9% and 99.3% | 81.9% and 72.3% | 60.8% and 61.9% | 55.7% and 58.6% | 45.8% and 50.8% | 25.7% and 30.8% | 135 nM and 165 nM |  |  |  | 
2 | CN1CCN(c2cc(C(=O)Nc3cc4cc(-c5cnn(C)c5)ccc4cn3)ccn2)CC1 |  |  | 102% [middle of 12 runs] | 95.1% [middle of 12 runs] | 71.7% [middle of 12 runs] | 4.43% [middle of 11 runs] |  | 1.12% [middle of 11 runs] | 0.43% [middle of 9 runs] | 461 nM [middle of 10 runs] | 
3 | CNC(=O)c1ccc(Nc2nc(OC3CCCC3)c3c(-c4ccc5nc(C)oc5c4)c[nH]c3n2)c(OC)c1 |  |  | 120% [middle of 12 runs] | 119% [middle of 12 runs] | 78.9% [middle of 12 runs] | 62.1% [middle of 12 runs] |  | 61.1% [middle of 12 runs] | 63.1% [middle of 12 runs] |  | > 10000 nM and 8190 nM
4 | COC1C=CCC(C)C(C)S(=O)(=O)NC(=O)c2ccc3c(c2)N(CC2CCC21)CC1(CCCc2cc(Cl)ccc21)CO3 (stereo not given) |  |  | 101% and 104% | 88.7% and 93.9% | 93.5% and 97.9% | 78.9% and 89.3% | 5360 nM and 5440 nM | 64.2% and 59.8% | 33.9% and 39% |  | 
5 | COc1c(OCCCN2CCOCC2)ccc2c3n(c(=NC(=O)c4cnc(N)nc4)nc12)CCN3 | 87.7% and 97.2% | 75.6% and 64.2% | 66.9% and 64.2% | 45.9% and 46.1% | 31.9% and 30.1% | 20.4% and 22.4% | 83.6 nM and 64.5 nM |  |  |  | 
